Consider two sequences from patent US10729785B2, “Particles comprising protamine and RNA in combination with endosome destabilizing agents” (BioNTech SE, priority 2014, dated 2020).

The assay deals with fresh human red blood cells. Put plainly: Validation of EDA: lysis of red blood cells at acidic pH (OD 405 nm of supernatant as surrogate of hemoglobin content). The settings on record: pH below 6, 7 hours; for damage of red blood cells / destabilization of cell membranes (OD 405 nm, hemoglobin content): 6 micrograms of peptide, 3 million human red blood cells in PBS, 37° C. In kind it is cell-based.

As for GLFEAIEGFIENGWEGMIDGWYG [peptide 1], the “damage of red blood cells / destabilization of cell membranes (OD 405 nm, hemoglobin content)” value was “damages red blood cells”. Consider “GLFEAIEGFIENGWEGLAEALAEALEALAAGGSC (Peptide 2) [Peptide derived from Influenza virus hemagglutinin, used as endosome destabilizing agent]”, for which the “damage of red blood cells / destabilization of cell membranes (OD 405 nm, hemoglobin content)” value is listed as “damages red blood cells”. Further, under “peptide 2 compared with peptide 1”, the “relative efficacy in damaging red blood cells” value is given as “more efficacious than peptide 1”.
